The assay concerns serum calcium concentration. The following applies: rat, in vivo, sc.

Where a SMILES comes first, the peptide text is derived from it. The star is where a group is joined. Propionyl = CCC(=O)*

Description: Rats were divided into four groups of seven animals, and each group was assigned at random to a dose of standard or test solution. Low and high doses were chosen from the linear portion of the dose-response curve. For the salmon calcitonin standard, the values were 0.7 and 2.1 mcg. peptide/100 g. body weight (BW). This dose approximates 3 and 9 MU/100 g. BW. Peptides were given by subcutaneous injection (0.2 ml./100 g. BW) and blood was withdrawn 1 hour later for serum calcium determination. Sera are processed and analyzed within two hours of collection.

On to `CCC(=O)N[C@@H](C)C(=O)N[C@@H](CO)C(=O)N[C@@H](CC(N)=O)C(=O)N[C@@H](CC(C)C)C(=O)N[C@@H](CO)C(=O)N[C@H](C(=O)N[C@@H](C)C(=O)N[C@H](C(=O)N[C@@H](CC(C)C)C(=O)NCC(=O)N[C@@H](CCCCN)C(=O)N[C@@H](CC(C)C)C(=O)N[C@@H](CO)C(=O)N[C@@H](CCC(N)=O)C(=O)N[C@@H](CCC(=O)O)C(=O)N[C@@H](CC(C)C)C(=O)N[C@@H](Cc1c[nH]cn1)C(=O)N[C@@H](CCCCN)C(=O)N[C@@H](CC(C)C)C(=O)N[C@@H](CCC(N)=O)C(=O)N[C@H](C(=O)N[C@@H](Cc1ccc(O)cc1)C(=O)N1CCC[C@H]1C(=O)N[C@@H](CCCNC(=N)N)C(=O)N[C@H](C(=O)N[C@@H](CC(N)=O)C(=O)N[C@H](C(=O)NCC(=O)N[C@@H](CO)C(=O)NCC(=O)N[C@H](C(=O)N1CCC[C@H]1C(N)=O)[C@@H](C)O)[C@@H](C)O)[C@@H](C)O)[C@@H](C)O)C(C)C)[C@@H](C)O` [[N^α-Propionyl-Di-Ala^1,7]SCT, [N^α-Propionyl, 1,7-Di-Alanine]salmon calcitonin] (Propionyl-ASNLSTAVLGKLSQELHKLQTYPRTNTGSGTP-NH2), for which the biological potency came to 5450 IU/mg.

The values above are taken from patent publication EP0297159A1, “[N-Acyl, 1,7-Di-Aline] calcitonins, method for their preparation, pharmaceutical compositions and use” (Armour Pharmaceutical Company, priority 1987, dated 1989).
